Results taken from PubChem BioAssay (NCI).
Values joined by “and” are separate entries in the source; they are usually repeats but may differ in a detail not shown here. Identical values can stand only once.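 Grown in 96-well plates, cells were treated for 48 hours with each compound at five concentrations. Insufficient inhibition: endpoint recorded as highest concentration tested. GI50 is the concentration that inhibits growth by half. TGI: total growth inhibition.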

Columns and labels:
Test in all cases: DTP human tumour cell line panel, 48 h
A549 NSCLC = tested on: A549 NSCLC
DU-145 prostate = tested on: DU-145 prostate
HL-60(TB) leukemia = tested on: HL-60(TB) leukemia
HS 578T breast = tested on: HS 578T breast
HT29 colon = tested on: HT29 colon
KM12 colon = tested on: KM12 colon
NCI-H522 lung = tested on: NCI-H522 lung
OVCAR-3 ovarian = tested on: OVCAR-3 ovarian
OVCAR-5 ovarian = tested on: OVCAR-5 ovarian
RPMI-8226 leukemia = tested on: RPMI-8226 leukemia

In the case of `CCCC#CCOC(=O)c1cc([N+](=O)[O-])cc([N+](=O)[O-])c1`, the TGI (A549 NSCLC) is reported as > 100 µM, the TGI (DU-145 prostate) is reported as > 100 µM and the TGI (HL-60(TB) leukemia) is reported as > 100 µM. For the same molecule, the TGI (HS 578T breast) was > 100 µM, the TGI (HT29 colon) was > 100 µM and the TGI (KM12 colon) was > 100 µM. The TGI (NCI-H522 lung) was > 100 µM, the TGI (OVCAR-3 ovarian) was > 100 µM and the TGI (OVCAR-5 ovarian) was > 100 µM. For the same molecule, the TGI (RPMI-8226 leukemia) was > 100 µM.
For `CCN(CC)c1ccc(/C=C/C=C(/C#N)C(N)=S)cc1`, the GI50 (A549 NSCLC) was 5.94 µM, the TGI (A549 NSCLC) was > 100 µM and the GI50 (DU-145 prostate) was 3.88 µM. The TGI (DU-145 prostate) was > 100 µM, the GI50 (HL-60(TB) leukemia) was 2.53 µM and the TGI (HL-60(TB) leukemia) was 18.9 µM. The GI50 (HS 578T breast) was 38.5 µM, the TGI (HS 578T breast) was > 100 µM and the GI50 (HT29 colon) was 2.84 µM. For the same molecule, the TGI (HT29 colon) was 23.9 µM, the GI50 (KM12 colon) was 9.6 µM and the TGI (KM12 colon) was > 100 µM. For the same molecule, the GI50 (NCI-H522 lung) was 8.54 µM, the TGI (NCI-H522 lung) was 47.8 µM and the GI50 (OVCAR-3 ovarian) was 10.9 µM. The TGI (OVCAR-3 ovarian) was > 100 µM, the GI50 (OVCAR-5 ovarian) was 4.83 µM and the TGI (OVCAR-5 ovarian) was > 100 µM. The GI50 (RPMI-8226 leukemia) was 2.14 µM and the TGI (RPMI-8226 leukemia) was 7.88 µM.
`CC12CCC(O)CC1=CCC1C2CCC2(C)C(c3cccnc3)=CCC12` (stereo unspecified) was tested, and the GI50 (A549 NSCLC) was > 100 µM, the TGI (A549 NSCLC) was > 100 µM and the GI50 (DU-145 prostate) was > 100 µM. The TGI (DU-145 prostate) was > 100 µM, the GI50 (HL-60(TB) leukemia) was > 100 µM and the TGI (HL-60(TB) leukemia) was > 100 µM. For the same molecule, the GI50 (HS 578T breast) was > 100 µM, the TGI (HS 578T breast) was > 100 µM and the GI50 (HT29 colon) was 82.2 µM. The TGI (HT29 colon) was > 100 µM, the GI50 (KM12 colon) was > 100 µM and the TGI (KM12 colon) was > 100 µM. For the same molecule, the GI50 (NCI-H522 lung) was > 100 µM, the TGI (NCI-H522 lung) was > 100 µM and the GI50 (OVCAR-3 ovarian) was > 100 µM. The TGI (OVCAR-3 ovarian) was > 100 µM, the GI50 (OVCAR-5 ovarian) was > 100 µM and the TGI (OVCAR-5 ovarian) was > 100 µM. The GI50 (RPMI-8226 leukemia) was 39.1 µM and the TGI (RPMI-8226 leukemia) was > 100 µM.
For `Cc1ccc(C(=O)N=Nc2c(O)[nH]c3ccc(Cl)cc23)cc1`, the GI50 (A549 NSCLC) was 22.8 µM, the TGI (A549 NSCLC) was > 50 µM and the GI50 (DU-145 prostate) was 46.9 µM. For the same molecule, the TGI (DU-145 prostate) was > 50 µM, the GI50 (HL-60(TB) leukemia) was 38.7 µM and the TGI (HL-60(TB) leukemia) was > 50 µM. The GI50 (HS 578T breast) was > 50 µM, the TGI (HS 578T breast) was > 50 µM and the GI50 (HT29 colon) was 19.8 µM. The TGI (HT29 colon) was > 50 µM, the GI50 (KM12 colon) was > 50 µM and the TGI (KM12 colon) was > 50 µM. The GI50 (NCI-H522 lung) was 20.2 µM, the TGI (NCI-H522 lung) was > 50 µM and the GI50 (OVCAR-3 ovarian) was 21.3 µM. The TGI (OVCAR-3 ovarian) was > 50 µM, the GI50 (OVCAR-5 ovarian) was 44.6 µM and the TGI (OVCAR-5 ovarian) was > 50 µM. The GI50 (RPMI-8226 leukemia) was 5.74 µM and the TGI (RPMI-8226 leukemia) was > 50 µM.
In the case of `CC(OC(=O)N(N(CCCl)S(C)(=O)=O)S(C)(=O)=O)c1ccc([N+](=O)[O-])cc1` (stereo unspecified), the GI50 (A549 NSCLC) is reported as > 58.3 µM, the TGI (A549 NSCLC) is reported as > 100 µM and the GI50 (DU-145 prostate) is reported as 24 µM. For the same molecule, the TGI (DU-145 prostate) was > 100 µM, the GI50 (HL-60(TB) leukemia) was 40.1 µM and the TGI (HL-60(TB) leukemia) was > 100 µM. The GI50 (HS 578T breast) was > 54.7 µM, the TGI (HS 578T breast) was > 92 µM and the GI50 (HT29 colon) was 65 µM. The TGI (HT29 colon) was > 100 µM, the GI50 (KM12 colon) was > 82 µM and the TGI (KM12 colon) was > 100 µM. For the same molecule, the GI50 (NCI-H522 lung) was 51.4 µM, the TGI (NCI-H522 lung) was > 100 µM and the GI50 (OVCAR-3 ovarian) was 42.5 µM. The TGI (OVCAR-3 ovarian) was > 100 µM, the GI50 (OVCAR-5 ovarian) was > 100 µM and the TGI (OVCAR-5 ovarian) was > 100 µM. The GI50 (RPMI-8226 leukemia) was > 40.4 µM and the TGI (RPMI-8226 leukemia) was > 61.4 µM.
For `O=C1N[C@H]2[C@H](O)[C@H](O)[C@@H](O)[C@H](O)[C@@H]2c2cc3c(c(O)c21)OCO3`, the GI50 (A549 NSCLC) was 0.407 µM and 3.51 µM, the GI50 (DU-145 prostate) was 0.0101 µM and the TGI (DU-145 prostate) was 0.0963 µM and 0.102 µM. For the same molecule, the GI50 (HL-60(TB) leukemia) was 0.194 µM and 0.0783 µM, the TGI (HL-60(TB) leukemia) was 0.331 µM and 0.0744 µM and the GI50 (HS 578T breast) was 0.021 µM and 0.0403 µM. For the same molecule, the TGI (HS 578T breast) was 0.0941 µM and 0.0978 µM, the GI50 (HT29 colon) was 0.3 µM and 0.36 µM and the TGI (HT29 colon) was 3.84 µM and 0.44 µM. For the same molecule, the GI50 (KM12 colon) was 0.234 µM, the TGI (KM12 colon) was 2.8 µM and 0.41 µM and the GI50 (NCI-H522 lung) was 0.143 µM. For the same molecule, the TGI (NCI-H522 lung) was 0.886 µM and 0.141 µM, the GI50 (OVCAR-3 ovarian) was 0.275 µM and 0.347 µM and the GI50 (OVCAR-5 ovarian) was 0.657 µM and 1.16 µM. For the same molecule, the TGI (OVCAR-5 ovarian) was 9.37 µM and 1.22 µM and the GI50 (RPMI-8226 leukemia) was 0.224 µM and 0.842 µM.
In the case of `COC(=O)/C(=C\c1c(-c2ccccc2)[nH]c2ccccc12)S(C)(=O)=O`, the GI50 (A549 NSCLC) is reported as 5.26 µM, the TGI (A549 NSCLC) is reported as 98.4 µM and the GI50 (DU-145 prostate) is reported as 2.48 µM. The TGI (DU-145 prostate) was 6.11 µM, the GI50 (HL-60(TB) leukemia) was 3.38 µM and the TGI (HL-60(TB) leukemia) was 15.1 µM. For the same molecule, the GI50 (HS 578T breast) was 3.46 µM, the TGI (HS 578T breast) was > 100 µM and the GI50 (HT29 colon) was 3.58 µM. The TGI (HT29 colon) was 46.1 µM, the GI50 (KM12 colon) was 1.48 µM and the TGI (KM12 colon) was 4.42 µM. The GI50 (NCI-H522 lung) was 3.06 µM, the TGI (NCI-H522 lung) was 14.5 µM and the GI50 (OVCAR-3 ovarian) was 1.92 µM. For the same molecule, the TGI (OVCAR-3 ovarian) was 3.97 µM, the GI50 (OVCAR-5 ovarian) was 19.6 µM and the TGI (OVCAR-5 ovarian) was 49.8 µM. For the same molecule, the GI50 (RPMI-8226 leukemia) was 6.15 µM and the TGI (RPMI-8226 leukemia) was 96.4 µM.
For `Nc1nc(-c2cc(-c3cccc4ccccc34)nc(N)n2)cc(-c2cccc3ccccc23)n1`, the TGI (A549 NSCLC) was > 100 µM, the TGI (DU-145 prostate) was > 100 µM and the TGI (HL-60(TB) leukemia) was > 100 µM. For the same molecule, the TGI (HS 578T breast) was > 100 µM, the TGI (HT29 colon) was > 100 µM and the TGI (KM12 colon) was > 100 µM. For the same molecule, the TGI (NCI-H522 lung) was > 100 µM, the TGI (OVCAR-3 ovarian) was > 100 µM and the TGI (OVCAR-5 ovarian) was > 100 µM. The TGI (RPMI-8226 leukemia) was > 100 µM.
For `CCN(CC)CCCNc1[nH]ncc2c(C)c3nc4ccccc4c3cc12`, the GI50 (A549 NSCLC) was 0.398 µM, the TGI (A549 NSCLC) was 2.94 µM and 14.2 µM and the GI50 (DU-145 prostate) was 0.555 µM. For the same molecule, the TGI (DU-145 prostate) was 11.2 µM and 5.62 µM, the TGI (HL-60(TB) leukemia) was 1.89 µM and the GI50 (HS 578T breast) was 0.449 µM. For the same molecule, the TGI (HS 578T breast) was 2.13 µM and 6.38 µM, the GI50 (HT29 colon) was 0.362 µM and the TGI (HT29 colon) was 1.71 µM and 2.83 µM. For the same molecule, the GI50 (KM12 colon) was 0.355 µM, the TGI (KM12 colon) was 1.47 µM and 6.75 µM and the GI50 (NCI-H522 lung) was 0.217 µM. For the same molecule, the TGI (NCI-H522 lung) was 1.15 µM and 1.14 µM, the GI50 (OVCAR-3 ovarian) was 0.589 µM and the TGI (OVCAR-3 ovarian) was 3.14 µM and 7.11 µM. The GI50 (OVCAR-5 ovarian) was 0.774 µM, the TGI (OVCAR-5 ovarian) was 6.81 µM and 16.6 µM and the GI50 (RPMI-8226 leukemia) was 1.51 µM and 0.99 µM. For the same molecule, the TGI (RPMI-8226 leukemia) was 4.92 µM and 5.62 µM.
For `Cc1ncc(-c2ccnc(Nc3ccc(S(C)(=O)=O)cc3)n2)n1C(C)C`, the GI50 (A549 NSCLC) was 1.34 µM, the TGI (A549 NSCLC) was > 10 µM and the GI50 (DU-145 prostate) was 1.32 µM. For the same molecule, the TGI (DU-145 prostate) was > 10 µM, the GI50 (HL-60(TB) leukemia) was 1.06 µM and the TGI (HL-60(TB) leukemia) was 4.64 µM. For the same molecule, the GI50 (HS 578T breast) was 0.977 µM, the TGI (HS 578T breast) was 5.33 µM and the GI50 (HT29 colon) was 1.29 µM. For the same molecule, the TGI (HT29 colon) was > 10 µM, the GI50 (KM12 colon) was 0.527 µM and the TGI (KM12 colon) was 2.33 µM. The GI50 (NCI-H522 lung) was 1.52 µM, the TGI (NCI-H522 lung) was 5.29 µM and the GI50 (OVCAR-3 ovarian) was 0.853 µM. The TGI (OVCAR-3 ovarian) was > 8.42 µM, the GI50 (OVCAR-5 ovarian) was 1.09 µM and the TGI (OVCAR-5 ovarian) was > 8.88 µM. The GI50 (RPMI-8226 leukemia) was 1.57 µM and the TGI (RPMI-8226 leukemia) was 6.18 µM.
